Our source for the IC50 values is patent US7671181B2, “Polynucleotides encoding coccidian parasite casein kinase I, a chemotherapeutic target for antiprotozoal agents” (Merck Sharp & Dohme Corp., priority 2004, dated 2010).

One test has as its system T. gondii. Nature of the test: Parasite growth inhibition, modified [3H]-uracil uptake assay in infected HFF cell monolayers. The format is cell-based, Toxoplasma gondii. As to conditions: Toxoplasma gondii, HFF. The source says: Host cells and parasite cultures—RH strain or RH ΔHXGPRT strain tachyzoites of T. gondii were maintained by serial passage in confluent monolayers of human foreskin fibroblasts (“HFF”) as described (Roos, D. S. et al., 1994, Methods Cell Biol. 45:27-63). A modified [^3H]-uracil uptake assay (Pfefferkorn, E. R. and Pfefferkorn, L. C., 1977, J. Protozool. 24:449-453) adapted for use in 96-well scintillation plates (Cytostar-T, Amersham; Piscataway, N.J.) was used to measure parasite growth inhibition. Each well, previously seeded with HFF cells, was inoculated with T. gondii tachyzoites (2×10^4) in 200 μl of growth media containing 2 μCi [5,6]-^3H-uracil (Perkin-Elmer NEN; Boston, Mass.) and serially diluted compound. Following incubation at 37° C. for 36-48 hours, tritium-incorporation into host cell monolayers was directly counted in a microplate scintillation counter (MicroBeta, PerkinElmer-Wallac).
The only other CDK inhibitor with sub-μM activity against T. gondii was indirubin-3′-monoxime, which gave an IC50 value of 500 nM.

Test [1] deals with T1, Toxoplasma gondii casein kinase I alpha (TgCKIα), recombinant FLAG-tagged or native, SEQ ID NO:4 (Toxoplasma gondii, UniProt Q6QNM1).
T1 construct: same protein
Put plainly: Casein kinase assay, inhibition of TgCKIα (recombinant or native forms). The format is biochemical. Here is the method:
(§1) Protein kinase assays—Casein kinase activity was assayed essentially as described (Donald, R. G. K. et al., 2002, supra) using 96-well phosphocellulose plates (MAPH-NOB, Millipore; Billerica, Mass.) to capture ^33P-phosphorylated peptide or casein substrates. Kinase reactions were carried out in 40 μl volumes containing 25 mM Hepes, pH 7.4, 10 mM MgCl2, 20 mM β-glycerophosphate, 1 mM DTT, 250 μM substrate, 1 mg/mL BSA, 2 μM ATP, and 0.01 μM [γ-^33P]ATP (Perkin-Elmer, 3000 Ci/mmol). The reactions were initiated by the addition of enzyme and incubated at room temperature for 60 min. Casein (5% solution), partially dephosphorylated α-casein and β-casein were obtained from Sigma.
A variety of commercially available peptide substrates were evaluated. From Calbiochem (San Diego, Calif.): CKI substrate (RRKDLHDDEEDEAMSITA; SEQ ID NO:13); CKII substrate (RRADDSDDDDD; SEQ ID NO:14); Syntide-2 substrate (PLARTLSVAGLPGKK; SEQ ID NO:15); CaM kinase II substrate (281-291) (MHKNETVECLK; SEQ ID NO:16). […]
(§2) Preparations of FLAGTgCKIα and FLAGTgCKIβ were purified further on a SMART system FPLC 0.1 mL MonoQ anion exchange column (Pharmacia; New York, N.Y.) equilibrated in buffer A (50 mM Hepes, pH 7.4, 10% glycerol, 1 mM DTT) at room temperature. […] A linear salt gradient was applied (0-500 mM in 3 mL at 100 μl/min) and 100 μl fractions were collected and analyzed by SDS-PAGE and for CKI activity. […]

The target in test [2] is T2, Toxoplasma gondii calmodulin domain-like protein kinase 1 (FLAGTgCDPK1, recombinant) (Toxoplasma gondii, UniProt Q9BJF5).
T2 construct: FLAG (C); made in house; host or cells: transgenic Toxoplasma gondii parasites
Nature of the test: Kinase assay, inhibition of recombinant TgCDPK1. The format is biochemical. Particulars: CDK inhibitor study (text to Table 2). Here is the method:
as §1
A variety of commercially available peptide substrates were evaluated. […]
Purification of recombinant TgCDPK1 and TgPKG—The TgCDPK1 open reading frame was amplified by PCR from a Toxoplasma cDNA library, using primers based on the published sequence (Kieschnick et al., 2001, supra): sense primer, […] […] A C-terminal FLAG epitope tag was appended to the TgCDPK1 open reading frame by an additional round of PCR amplification (KOD polymerase) and the resulting DNA fragment was sub-cloned into a tubulin promoter expression vector (Donald and Liberator, 2002, supra). […]

A further test addresses T3, TgCDPK1 (Toxoplasma gondii, UniProt Q9BJF5).
T3 construct: The TgCDPK1 open reading frame was amplified by PCR from a Toxoplasma cDNA library; made in house
Nature of the test: CDPK assay with Syntide-2, T. gondii CDPK1. The format is biochemical. As for the experimental part:
as §1
(§3) A variety of commercially available peptide substrates were evaluated. From Calbiochem (San Diego, Calif.): CKI substrate (RRKDLHDDEEDEAMSITA; SEQ ID NO:13); CKII substrate (RRADDSDDDDD; SEQ ID NO:14); Syntide-2 substrate (PLARTLSVAGLPGKK; SEQ ID NO:15); CaM kinase II substrate (281-291) (MHKNETVECLK; SEQ ID NO:16). From Promega: CKI substrate (DDDEESITRR; SEQ ID NO:17) and kemptide (LRRASLG; SEQ ID NO:18). From New England Biolabs (Beverly, Mass.): CKI phosphopeptide substrate (KRRRALS(p)VASLPGL; SEQ ID NO:19), and CKII substrate (RRREEETEEE; SEQ ID NO:20). PKG assays were performed with kemptide as substrate and 10 μM cGMP. CDPK was assayed with Syntide-2 substrate and in the presence of 100 μM CaCl2.
Purification of recombinant TgCDPK1 and TgPKG—The TgCDPK1 open reading frame was amplified by PCR from a Toxoplasma cDNA library, using primers based on the published sequence (Kieschnick et al., 2001, supra): sense primer, […] (SEQ ID NO:44); and, antisense primer, […] (SEQ ID NO:45). A C-terminal FLAG epitope tag was appended to the TgCDPK1 open reading frame by an additional round of PCR amplification (KOD polymerase) and the resulting DNA fragment was sub-cloned into a tubulin promoter expression vector (Donald and Liberator, 2002, supra). […]

The target of the next test is FLAGTgCDPK3 (Toxoplasma gondii, UniProt A0A125YQG4). Put plainly: Protein kinase assay, FLAGTgCDPK3. It is filed as biochemical. As to conditions: read-out: IC50, FLAGTgCDPK3; recombinant enzyme, dose response titrations. As for the experimental part:
as §1, §3

Another test addresses EtCKIα (Eimeria tenella, UniProt Q6QNL9). Put plainly: Casein kinase assay, partially purified native EtCKIα. The format is biochemical. Particulars: partially purified native enzyme from Eimeria oocysts; read-out: IC50, nativeEtCKIα. Here is the method:
as §1, §3
Partial purification of native EtCKIα—The inability to stably express recombinant EtCKIα in T. gondii provided impetus to purify native enzyme from E. tenella parasites (slide 5). A lysate was prepared from 2×10^10 unsporulated oocysts using previously published procedures (Gurnett, A. M. et al., 2002, supra). The first two steps of the purification scheme used were essentially scaled-up from the method described for the purification of native TgCKIα. The lysate was subjected to preparative HiLoad Q anion-exchange chromatography and fractions eluted with a NaCl gradient (0-1 M NaCl). […]

In the next test the target is T4, EtPKG (Eimeria tenella, UniProt Q8MMZ8).
T4 construct: Eimeria oocysts (EtCKIα and EtPKG); from tissue; host or cells: Eimeria oocysts
Put plainly: PKG assay with kemptide, native EtPKG. The format is biochemical. Particulars: native enzyme from Eimeria oocysts; read-out: IC50, nativeEtPKG. As for the experimental part: as §1, §3

Another test deals with FLAGEtCDPK1 (Eimeria tenella, UniProt Q3HNM4). Put plainly: Protein kinase assay, FLAGEtCDPK1. As to conditions: recombinant enzyme, dose response titrations. The format is biochemical. Here is the method: as §1, §3
The target in the next test is TgCKIα (Toxoplasma gondii, UniProt Q6QNM1). Nature of the test: Casein kinase assay, TgCKIα (recombinant FLAGTgCKIα or partially purified native). More on the design: Km(app), native TgCKIα; other: substrate titration, 2 μM ATP; IC50, nativeTgCKIα; other: partially purified native enzyme from Toxoplasma tachyzoites; sensitivity of native TgCKIα phosphopeptide kinase activity (HiTrapQ fractions 5-9); other: 0.2 μM hymenialdisine or 1. The format is biochemical. Here is the method:
Protein kinase assays—Casein kinase activity was assayed essentially as described (Donald, R. G. K. et al., 2002, supra) using 96-well phosphocellulose plates (MAPH-NOB, Millipore; Billerica, Mass.) to capture ^33P-phosphorylated peptide or casein substrates. Kinase reactions were carried out in 40 μl volumes containing 25 mM Hepes, pH 7.4, 10 mM MgCl2, 20 mM β-glycerophosphate, 1 mM DTT, 250 μM substrate, 1 mg/mL BSA, 2 μM ATP, and 0.01 μM [γ-^33P]ATP (Perkin-Elmer, 3000 Ci/mmol). […] Casein (5% solution), partially dephosphorylated α-casein and β-casein were obtained from Sigma.
as §3
Purification of recombinant CKI enzymes—E. coli strain BL21 Origami™ (Novagen) was transformed with FLAGTgCKIα and FLAGTgCKIβ expression vectors, and colonies were expanded into 250 mL LB cultures grown at 37° C. Expression was induced with 1 mM IPTG once cultures had reached an OD600nm of 0.3-0.5, and the transformed bacteria were harvested 4-6 hours later. Cell pellets were resuspended in 15 mL of lysis buffer containing protease inhibitors and lysates prepared as described by the supplier (Bugbuster™ reagents, Novagen). The concentration of NaCl in the lysate was adjusted to 0.5 M, and 0.5 mL of FLAG-agarose beads were added (Sigma). The mixture was allowed to rock in a Nutator mixer (Becton-Dickinson; San Jose, Calif.) for 2 hours at 4° C. The slurry was then poured into an empty column and the matrix washed with 50 mL of wash buffer (50 mM Tris-HCl, pH 7.4, 0.5M NaCl, 10% glycerol, 1 mM DTT, 1 mM EDTA). […] Protein was measured with a micro-BCA reagent (Pierce) following a TCA-sodium deoxycholate step to remove residual FLAG peptide (Brown et al., 1989, Anal. Biochem. 180:136-139). […]
as §2

The term IC50 denotes the concentration needed to halve the response being measured.

T1 sequence (Q6QNM1 whole entry): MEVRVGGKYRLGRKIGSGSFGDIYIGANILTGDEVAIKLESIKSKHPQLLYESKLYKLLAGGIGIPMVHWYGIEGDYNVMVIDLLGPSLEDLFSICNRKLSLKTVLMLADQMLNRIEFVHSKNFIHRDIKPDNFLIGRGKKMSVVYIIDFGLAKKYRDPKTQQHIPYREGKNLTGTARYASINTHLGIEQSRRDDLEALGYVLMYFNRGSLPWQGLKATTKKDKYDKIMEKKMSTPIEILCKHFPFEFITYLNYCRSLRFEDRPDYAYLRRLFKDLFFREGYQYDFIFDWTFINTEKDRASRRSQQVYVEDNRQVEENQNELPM
Chain of TgCKIα (Q6QNM1 whole entry, looked up): as the sequence (Q6QNM1 whole entry) above
Chain of FLAGEtCDPK1 (Q3HNM4 entry or part of it): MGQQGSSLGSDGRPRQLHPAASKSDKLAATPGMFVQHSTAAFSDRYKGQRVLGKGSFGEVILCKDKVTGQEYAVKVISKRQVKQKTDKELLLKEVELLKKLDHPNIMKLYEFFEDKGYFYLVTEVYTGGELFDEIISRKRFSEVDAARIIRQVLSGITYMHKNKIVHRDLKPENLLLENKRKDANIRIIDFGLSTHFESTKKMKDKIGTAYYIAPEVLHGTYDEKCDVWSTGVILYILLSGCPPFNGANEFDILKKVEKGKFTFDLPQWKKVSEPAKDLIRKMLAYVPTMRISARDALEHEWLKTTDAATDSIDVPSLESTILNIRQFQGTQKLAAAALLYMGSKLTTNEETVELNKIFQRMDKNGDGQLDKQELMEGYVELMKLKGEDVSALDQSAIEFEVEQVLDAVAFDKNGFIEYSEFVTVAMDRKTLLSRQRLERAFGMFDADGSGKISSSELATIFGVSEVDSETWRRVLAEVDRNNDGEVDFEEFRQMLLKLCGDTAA
T3 sequence (Q9BJF5 entry or part of it): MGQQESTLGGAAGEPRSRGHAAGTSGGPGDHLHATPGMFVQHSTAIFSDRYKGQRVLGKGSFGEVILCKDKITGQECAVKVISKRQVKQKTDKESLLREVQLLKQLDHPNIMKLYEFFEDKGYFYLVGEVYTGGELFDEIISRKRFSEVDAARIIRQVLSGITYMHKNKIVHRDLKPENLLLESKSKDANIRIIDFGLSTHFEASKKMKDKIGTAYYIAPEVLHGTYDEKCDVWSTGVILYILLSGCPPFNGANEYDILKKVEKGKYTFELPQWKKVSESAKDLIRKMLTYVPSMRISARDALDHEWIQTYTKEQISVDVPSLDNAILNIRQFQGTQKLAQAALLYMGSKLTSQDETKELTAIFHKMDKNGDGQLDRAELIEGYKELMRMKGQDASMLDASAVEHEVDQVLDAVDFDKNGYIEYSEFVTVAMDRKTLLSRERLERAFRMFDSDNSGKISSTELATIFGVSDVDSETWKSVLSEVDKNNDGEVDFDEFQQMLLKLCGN
T2 sequence (Q9BJF5 entry or part of it): as above
Chain of EtCKIα (Q6QNL9 whole entry): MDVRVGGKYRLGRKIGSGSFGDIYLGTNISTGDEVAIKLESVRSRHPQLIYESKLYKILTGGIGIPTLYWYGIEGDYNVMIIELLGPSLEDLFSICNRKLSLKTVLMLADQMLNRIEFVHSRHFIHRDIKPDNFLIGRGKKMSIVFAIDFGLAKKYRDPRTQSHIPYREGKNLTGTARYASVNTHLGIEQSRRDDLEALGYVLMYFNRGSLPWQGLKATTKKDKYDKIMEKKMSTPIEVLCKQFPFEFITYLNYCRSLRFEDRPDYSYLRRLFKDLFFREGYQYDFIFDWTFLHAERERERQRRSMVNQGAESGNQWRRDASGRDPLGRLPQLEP
Chain of FLAGTgCDPK3 (A0A125YQG4 entry or part of it): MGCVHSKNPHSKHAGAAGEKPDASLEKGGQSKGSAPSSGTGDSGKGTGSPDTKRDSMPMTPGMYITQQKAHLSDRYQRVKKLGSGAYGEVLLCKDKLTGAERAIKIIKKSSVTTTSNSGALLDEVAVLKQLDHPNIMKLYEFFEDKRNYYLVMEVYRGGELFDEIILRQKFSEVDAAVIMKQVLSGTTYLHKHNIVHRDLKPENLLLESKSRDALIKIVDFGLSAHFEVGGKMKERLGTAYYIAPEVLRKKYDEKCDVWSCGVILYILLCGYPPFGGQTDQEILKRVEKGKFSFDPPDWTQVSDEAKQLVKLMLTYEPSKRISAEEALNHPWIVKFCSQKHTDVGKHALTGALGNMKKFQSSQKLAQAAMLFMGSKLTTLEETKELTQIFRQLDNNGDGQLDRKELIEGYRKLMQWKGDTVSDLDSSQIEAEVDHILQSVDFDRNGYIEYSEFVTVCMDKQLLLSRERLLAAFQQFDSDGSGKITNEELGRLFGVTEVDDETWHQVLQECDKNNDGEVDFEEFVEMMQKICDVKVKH
T4 sequence (Q8MMZ8 whole entry): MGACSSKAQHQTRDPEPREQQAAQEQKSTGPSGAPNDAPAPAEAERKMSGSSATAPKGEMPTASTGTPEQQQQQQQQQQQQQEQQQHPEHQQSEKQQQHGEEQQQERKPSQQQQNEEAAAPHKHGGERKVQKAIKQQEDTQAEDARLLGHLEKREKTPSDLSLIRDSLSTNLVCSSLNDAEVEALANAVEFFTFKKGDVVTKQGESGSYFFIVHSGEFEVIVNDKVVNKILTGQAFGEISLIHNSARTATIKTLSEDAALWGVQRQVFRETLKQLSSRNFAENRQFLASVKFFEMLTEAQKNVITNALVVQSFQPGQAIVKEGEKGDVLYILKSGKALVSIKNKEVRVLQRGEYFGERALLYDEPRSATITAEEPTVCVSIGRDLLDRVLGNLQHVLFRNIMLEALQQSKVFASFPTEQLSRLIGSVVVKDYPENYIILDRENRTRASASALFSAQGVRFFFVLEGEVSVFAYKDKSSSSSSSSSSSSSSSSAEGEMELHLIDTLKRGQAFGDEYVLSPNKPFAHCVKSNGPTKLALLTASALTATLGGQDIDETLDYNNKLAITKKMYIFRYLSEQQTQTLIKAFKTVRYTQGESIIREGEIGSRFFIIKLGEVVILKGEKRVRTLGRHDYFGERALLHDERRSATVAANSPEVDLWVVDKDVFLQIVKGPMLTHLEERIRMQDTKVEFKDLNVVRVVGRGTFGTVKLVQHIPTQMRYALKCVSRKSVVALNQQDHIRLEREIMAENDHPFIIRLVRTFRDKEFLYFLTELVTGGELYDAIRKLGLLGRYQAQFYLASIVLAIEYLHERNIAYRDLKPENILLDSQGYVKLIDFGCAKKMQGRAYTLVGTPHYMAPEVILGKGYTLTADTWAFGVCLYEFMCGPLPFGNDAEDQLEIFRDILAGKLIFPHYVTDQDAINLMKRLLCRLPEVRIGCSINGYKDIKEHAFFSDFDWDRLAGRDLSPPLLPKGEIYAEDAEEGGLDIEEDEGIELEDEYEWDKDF

As for `O=C1Nc2ccccc2/C1=C1/Nc2ccccc2/C1=N\O` [indirubin-3′-monoxime], the IC50 in the test with T. gondii is 500 nM; in test [1], 172 nM; in test [2], 175 nM.

`CN1CCC(c2ccn3c(-c4ccnc(N)n4)c(-c4ccc(F)cc4)nc3c2)CC1` [Compound 39, 4[2-(4-Fluorophenyl)1-7-(1-methylpiperidin-4-yl)imidazo[1,2-a]pyridin-3-yl]pyrimidin-2-amine]: the IC50 was 0.5 nM on TgCDPK1; greater than 10000 nM at FLAGTgCDPK3; 69 nM on EtCKIα; 0.5 nM at EtPKG; 126 nM on FLAGEtCDPK1; 15 nM at TgCKIα.
